These are literature values, as cited in US20130295052A1, “NOVEL CONJUGATES FOR TARGETED DRUG DELIVERY” (priority 2010, published 2013).

Where two headings read alike, the source gives them in different places.

On to `CC(=O)O[C@@]12CO[C@@H]1C[C@H](O)[C@@]1(C)C(=O)[C@H](O)C3=C(C)[C@@H](OC(=O)[C@H](O)[C@@H](NC(=O)OC(C)(C)C)c4ccccc4)C[C@@](O)([C@@H](OC(=O)c4ccccc4)[C@H]21)C3(C)C` [Taxotere, Docetaxel], for which the “grade 4 neutropenia (<500 cells/mm3), patients” value is, setting by setting: (60 mg/m2) 75%; (100 mg/m2) 85%. The “neutropenia (<2,000 neutrophils/mm3) occurrence” value (60-100 mg/m2) is “virtually in all patients”.
